Experimental findings from ChEMBL document CHEMBL4130471, “Design and synthesis of tranylcypromine derivatives as novel LSD1/HDACs dual inhibitors for cancer treatment” (Eur J Med Chem, 2017) are described below.

Calls of active or inactive are those of the source. The rule behind the calls is not given here.

The test system of assay [1] is MGC-803. Kind of assay: Induction of apoptosis in human MGC803 cells assessed as viable cells level at 2.5 uM incubated for 48 hrs by Annexin-V-FITC/propidium iodide staining based flow cytometry (reference value: 92.3%). It counts as functional. On the technique in general: A flow cytometer gives signals particle by particle.
In assay [2] the test system is MGC-803. Put plainly: Induction of apoptosis in human MGC803 cells assessed as viable cells level at 5 uM incubated for 24 hrs by Annexin-V-FITC/propidium iodide staining based flow cytometry (reference value: 94.6%). It counts as functional.
Assay [3] has as its target T1, Lysine-specific histone demethylase 1A (Homo sapiens, UniProt O60341). Kind of assay: Inhibition of LSD1 in human MGC803 cells assessed as increase in cellular H3K4me2 levels incubated for 24 hrs by Western blot. The assay is classed as cell-based. (In general: Immunoblotting shows a protein as a band on a membrane.)
In the next assay the target is Histone deacetylase 2 (Homo sapiens, UniProt Q92769).
Assay [4] concerns the target T1, Lysine-specific histone demethylase 1A. Kind of assay: Inhibition of LSD1 in human MGC803 cells assessed as increase in cellular H3K9me2 levels incubated for 24 hrs by Western blot. The assay is classed as cell-based.
Assay [5] relates to MGC-803. Put plainly: cells. The assay is classed as functional, cell-based. The following applies: Homo sapiens, MGC-803, 72 h.
Description: Antiproliferative activity against human MGC803 cells incubated for 72 hrs by MTT assay
For assay [6], the target named is T1, Lysine-specific histone demethylase 1A. Kind of assay: Inhibition of LSD1 in human MGC803 cells assessed as increase in cellular H3K4me3 levels at 1 uM incubated for 24 hrs by Western blot. It counts as cell-based.
Assay [7] has as its system MGC-803. Kind of assay: Induction of apoptosis in human MGC803 cells assessed as necrotic cells level at 7.5 uM incubated for 48 hrs by Annexin-V-FITC/propidium iodide staining based flow cytometry (reference value: 0.242%). The assay is classed as functional.
The test system of assay [8] is MGC-803. Kind of assay: Induction of apoptosis in human MGC803 cells assessed as necrotic cells level at 5 uM incubated for 48 hrs by Annexin-V-FITC/propidium iodide staining based flow cytometry (reference value: 0.242%). The assay is classed as functional.
For assay [9], the system named is MGC-803. Kind of assay: Potency index, ratio of IC50 for SAHA to IC50 for test compound for antiproliferative activity against human MGC803 cells incubated for 72 hrs by MTT assay. The assay is classed as functional. On the technique in general: Tetrazolium assays rely on reduction of a dye to a coloured formazan, in cell work by metabolically active cells.
Assay [10] deals with MGC-803. Kind of assay: Induction of apoptosis in human MGC803 cells assessed as viable cells level at 7.5 uM incubated for 48 hrs by Annexin-V-FITC/propidium iodide staining based flow cytometry (reference value: 92.3%). It counts as functional.
The test system of assay [11] is MGC-803. Put plainly: Induction of apoptosis in human MGC803 cells assessed as necrotic cells level at 2.5 uM incubated for 48 hrs by Annexin-V-FITC/propidium iodide staining based flow cytometry (reference value: 0.242%). The assay is classed as functional.
Assay [12] relates to MGC-803. Put plainly: Induction of apoptosis in human MGC803 cells assessed as early apoptotic cells level at 7.5 uM incubated for 24 hrs by Annexin-V-FITC/propidium iodide staining based flow cytometry (reference value: 4.37%). It counts as functional.
Assay [13] relates to MGC-803. Put plainly: Induction of apoptosis in human MGC803 cells assessed as late apoptotic cells level at 7.5 uM incubated for 48 hrs by Annexin-V-FITC/propidium iodide staining based flow cytometry (reference value: 0.121%). It counts as functional.
Assay [14] has as its target T2, Amine oxidase [flavin-containing] A (Homo sapiens, UniProt P21397).
T2 sequence (P21397 whole entry): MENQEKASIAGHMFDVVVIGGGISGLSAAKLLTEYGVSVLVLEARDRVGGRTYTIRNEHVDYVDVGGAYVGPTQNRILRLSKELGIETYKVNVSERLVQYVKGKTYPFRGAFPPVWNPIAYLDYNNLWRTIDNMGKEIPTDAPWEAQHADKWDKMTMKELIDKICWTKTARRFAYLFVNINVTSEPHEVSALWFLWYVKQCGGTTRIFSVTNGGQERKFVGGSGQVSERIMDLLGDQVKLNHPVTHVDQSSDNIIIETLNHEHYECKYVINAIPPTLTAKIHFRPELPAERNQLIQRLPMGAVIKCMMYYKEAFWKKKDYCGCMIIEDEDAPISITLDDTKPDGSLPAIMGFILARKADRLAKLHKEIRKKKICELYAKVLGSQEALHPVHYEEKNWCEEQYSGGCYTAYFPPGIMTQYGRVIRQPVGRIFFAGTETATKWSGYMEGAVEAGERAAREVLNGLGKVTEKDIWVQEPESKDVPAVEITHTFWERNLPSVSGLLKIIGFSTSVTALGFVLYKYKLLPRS
Description: Inhibition of MAOA (unknown origin) using beetle luciferin as substrate by MAO-Glo assay

Another assay relates to PC-3. Kind of assay: cells. The assay is classed as functional, cell-based. The conditions noted are these: Homo sapiens, PC-3, 72 h.
The test system of assay [15] is MGC-803. Kind of assay: Induction of apoptosis in human MGC803 cells assessed as late apoptotic cells level at 5 uM incubated for 24 hrs by Annexin-V-FITC/propidium iodide staining based flow cytometry (reference value: 0.447%). The assay is classed as functional.
Assay [16] concerns MGC-803. Put plainly: Induction of apoptosis in human MGC803 cells assessed as early apoptotic cells level at 7.5 uM incubated for 48 hrs by Annexin-V-FITC/propidium iodide staining based flow cytometry (reference value: 7.35%). The assay is classed as functional.
Assay [17] concerns the target T3, Amine oxidase [flavin-containing] B (Homo sapiens, UniProt P27338).
T3 sequence (P27338 whole entry): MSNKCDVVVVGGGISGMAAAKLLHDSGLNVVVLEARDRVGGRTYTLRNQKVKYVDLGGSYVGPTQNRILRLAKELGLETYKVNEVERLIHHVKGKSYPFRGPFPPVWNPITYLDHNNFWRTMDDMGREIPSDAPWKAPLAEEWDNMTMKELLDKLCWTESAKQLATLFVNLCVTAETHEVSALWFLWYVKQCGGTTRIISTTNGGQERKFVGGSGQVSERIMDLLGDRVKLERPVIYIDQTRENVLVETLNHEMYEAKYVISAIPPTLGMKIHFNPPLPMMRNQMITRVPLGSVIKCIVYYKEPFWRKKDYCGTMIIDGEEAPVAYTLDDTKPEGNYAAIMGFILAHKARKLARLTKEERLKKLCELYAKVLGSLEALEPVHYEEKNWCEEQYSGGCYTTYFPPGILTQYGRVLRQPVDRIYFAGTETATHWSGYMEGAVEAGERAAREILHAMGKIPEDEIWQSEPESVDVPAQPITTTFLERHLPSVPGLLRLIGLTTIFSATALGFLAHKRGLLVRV
Description: Inhibition of MAOB (unknown origin) using beetle luciferin as substrate by MAO-Glo assay

For assay [18], the system named is MGC-803. Kind of assay: Induction of mitochondrial membrane potential loss in human MGC803 cells assessed as FL2 red fluorescence level at 7.5 uM incubated for 48 hrs by JC1 staining based flow cytometry (reference value: 5.47%). It counts as functional.
The target of a further assay is Histone deacetylase 1 (Homo sapiens, UniProt Q13547). Kind of assay: Inhibition of C-terminal His-tagged and C-terminal FLAG-tagged human HDAC1 expressed in baculovirus expression system using Ac-peptide substrate incubated for 15 mins by fluorescence based assay.
Assay [19] concerns MGC-803. Put plainly: Induction of apoptosis in human MGC803 cells assessed as late apoptotic cells level at 2.5 uM incubated for 24 hrs by Annexin-V-FITC/propidium iodide staining based flow cytometry (reference value: 0.447%). The assay is classed as functional.
Assay [20] has as its system MGC-803. Put plainly: Induction of apoptosis in human MGC803 cells assessed as necrotic cells level at 2.5 uM incubated for 24 hrs by Annexin-V-FITC/propidium iodide staining based flow cytometry (reference value: 0.596%). It counts as functional.
Assay [21] concerns MGC-803. Put plainly: Induction of apoptosis in human MGC803 cells assessed as early apoptotic cells level at 5 uM incubated for 48 hrs by Annexin-V-FITC/propidium iodide staining based flow cytometry (reference value: 7.35%). It counts as functional.

Histone deacetylase 2, sequence (Q92769 whole entry): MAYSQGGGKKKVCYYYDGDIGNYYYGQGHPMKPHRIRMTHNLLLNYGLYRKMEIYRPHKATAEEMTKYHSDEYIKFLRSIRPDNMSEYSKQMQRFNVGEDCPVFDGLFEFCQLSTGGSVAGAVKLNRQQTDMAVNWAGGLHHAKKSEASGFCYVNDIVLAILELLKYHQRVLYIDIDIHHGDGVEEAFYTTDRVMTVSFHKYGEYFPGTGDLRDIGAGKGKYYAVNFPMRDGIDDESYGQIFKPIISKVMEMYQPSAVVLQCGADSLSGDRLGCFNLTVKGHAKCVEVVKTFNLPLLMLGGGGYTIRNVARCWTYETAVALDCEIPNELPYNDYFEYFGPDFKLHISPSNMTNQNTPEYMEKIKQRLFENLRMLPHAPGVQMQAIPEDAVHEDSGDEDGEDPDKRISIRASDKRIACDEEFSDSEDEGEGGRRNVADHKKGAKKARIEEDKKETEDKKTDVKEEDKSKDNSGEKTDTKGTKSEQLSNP
Histone deacetylase 1, sequence (Q13547 whole entry): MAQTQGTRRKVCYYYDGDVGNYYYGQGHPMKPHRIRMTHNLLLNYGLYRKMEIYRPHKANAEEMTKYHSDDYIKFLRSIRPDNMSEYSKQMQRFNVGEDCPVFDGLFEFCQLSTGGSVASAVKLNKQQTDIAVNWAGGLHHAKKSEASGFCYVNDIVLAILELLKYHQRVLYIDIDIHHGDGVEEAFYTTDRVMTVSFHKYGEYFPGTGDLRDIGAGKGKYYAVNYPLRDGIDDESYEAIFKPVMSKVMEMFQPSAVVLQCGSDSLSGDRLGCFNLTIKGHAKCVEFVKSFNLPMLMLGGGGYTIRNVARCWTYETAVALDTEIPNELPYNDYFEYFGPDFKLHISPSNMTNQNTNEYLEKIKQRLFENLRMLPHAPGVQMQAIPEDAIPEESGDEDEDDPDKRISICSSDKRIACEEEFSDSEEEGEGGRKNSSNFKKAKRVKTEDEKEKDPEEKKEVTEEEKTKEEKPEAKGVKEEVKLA
Description for Histone deacetylase 2: Inhibition of C-terminal His-tagged full length human HDAC2 expressed in baculovirus expression system using Ac-peptide substrate incubated for 15 mins by fluorescence based assay
Description for PC-3: Antiproliferative activity against human PC3 cells incubated for 72 hrs by MTT assay

As a reminder, the IC50 is the concentration needed to halve the response being measured. As for `O=C(CCCCCCNC(=O)c1ccc(CNC2(c3ccccc3)CC2)cc1)NO`, the Activity in the assay with MGC-803 [1] is on record as 25.4%; with MGC-803 [2] it was 60%; in the assay on MGC-803 [7] it was 1.61%; in the assay on MGC-803 [8], 2.21%; in the assay on MGC-803 [10], 7.42%; with MGC-803 [11] it was 2.2%. Further, the Activity came out at 31.7% in the assay with MGC-803 [12]; 49.6% in the assay with MGC-803 [13]; 11% in the assay with MGC-803 [15]; 41.4% in the assay with MGC-803 [16]; 94% in the assay with MGC-803 [18]; 4.27% in the assay on MGC-803 [19]. Besides, the figures for the Activity in the assay on MGC-803 [20] and with MGC-803 [21] were 1.22% and 42%, respectively. The inhibition result in [3] and in [4] was “Dose-dependent effect” each time. Besides, the IC50 against Histone deacetylase 2 is 0.023 µM; in the assay on MGC-803 [5], 0.81 µM; in assay [14], 21.1 µM; in the assay with PC-3 it was 5.48 µM; in assay [17], 87.1 µM; on Histone deacetylase 1, 0.015 µM. Moreover, the inhibition result in assay [6] is “inactive”. The “Ratio IC50” value in the assay on MGC-803 [9] was 10.
